In ChEMBL document CHEMBL1152560, “Substituted 2-arylbenzothiazoles as kinase inhibitors: hit-to-lead optimization” (Bioorg Med Chem, 2009):

Tests used:
[1] = biological target: Rho-associated protein kinase 2 (Homo sapiens) (UniProt O75116); test: Residual activity of ROCK2 at 10 uM by microplate scintillation counting
[2] = biological target: T1, Protein kinase C iota type (Homo sapiens) (UniProt P41743); test: Residual activity of PKCiota at 1 uM by microplate scintillation counting
T1 sequence (whole entry): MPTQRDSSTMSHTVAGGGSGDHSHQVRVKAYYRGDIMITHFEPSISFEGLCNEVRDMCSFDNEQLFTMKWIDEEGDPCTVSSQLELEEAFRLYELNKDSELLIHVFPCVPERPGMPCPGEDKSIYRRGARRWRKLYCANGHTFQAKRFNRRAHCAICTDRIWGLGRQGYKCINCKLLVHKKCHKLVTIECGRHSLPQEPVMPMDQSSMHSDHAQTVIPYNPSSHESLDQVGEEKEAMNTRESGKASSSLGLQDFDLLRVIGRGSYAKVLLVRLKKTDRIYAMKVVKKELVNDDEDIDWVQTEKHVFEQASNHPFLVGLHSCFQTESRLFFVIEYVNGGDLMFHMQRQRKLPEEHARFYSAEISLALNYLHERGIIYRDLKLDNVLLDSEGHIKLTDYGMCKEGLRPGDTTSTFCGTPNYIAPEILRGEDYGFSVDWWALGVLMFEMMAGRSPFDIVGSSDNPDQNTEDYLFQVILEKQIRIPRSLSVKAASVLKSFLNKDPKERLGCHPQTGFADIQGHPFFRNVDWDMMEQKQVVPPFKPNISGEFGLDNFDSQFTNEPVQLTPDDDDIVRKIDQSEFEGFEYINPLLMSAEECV

[3] = biological target: Serine/threonine-protein kinase Nek7 (Homo sapiens) (UniProt Q8TDX7); test: Residual activity of NEK7 at 10 uM by microplate scintillation counting
Sequence of Serine/threonine-protein kinase Nek7 (Homo sapiens) (Q8TDX7 whole entry, looked up): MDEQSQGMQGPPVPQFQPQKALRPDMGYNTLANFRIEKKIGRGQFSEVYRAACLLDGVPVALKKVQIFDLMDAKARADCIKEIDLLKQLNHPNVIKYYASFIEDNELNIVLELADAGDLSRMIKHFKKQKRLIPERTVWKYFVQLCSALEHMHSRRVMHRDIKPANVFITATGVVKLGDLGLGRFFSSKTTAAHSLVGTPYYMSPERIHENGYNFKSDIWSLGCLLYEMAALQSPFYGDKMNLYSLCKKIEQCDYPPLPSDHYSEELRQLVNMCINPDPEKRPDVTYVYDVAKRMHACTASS

[4] = biological target: G protein-coupled receptor kinase 6 (Homo sapiens) (UniProt P43250); test: Residual activity of GRK6 at 0.1 uM by microplate scintillation counting
Sequence of G protein-coupled receptor kinase 6 (Homo sapiens) (P43250 whole entry, looked up): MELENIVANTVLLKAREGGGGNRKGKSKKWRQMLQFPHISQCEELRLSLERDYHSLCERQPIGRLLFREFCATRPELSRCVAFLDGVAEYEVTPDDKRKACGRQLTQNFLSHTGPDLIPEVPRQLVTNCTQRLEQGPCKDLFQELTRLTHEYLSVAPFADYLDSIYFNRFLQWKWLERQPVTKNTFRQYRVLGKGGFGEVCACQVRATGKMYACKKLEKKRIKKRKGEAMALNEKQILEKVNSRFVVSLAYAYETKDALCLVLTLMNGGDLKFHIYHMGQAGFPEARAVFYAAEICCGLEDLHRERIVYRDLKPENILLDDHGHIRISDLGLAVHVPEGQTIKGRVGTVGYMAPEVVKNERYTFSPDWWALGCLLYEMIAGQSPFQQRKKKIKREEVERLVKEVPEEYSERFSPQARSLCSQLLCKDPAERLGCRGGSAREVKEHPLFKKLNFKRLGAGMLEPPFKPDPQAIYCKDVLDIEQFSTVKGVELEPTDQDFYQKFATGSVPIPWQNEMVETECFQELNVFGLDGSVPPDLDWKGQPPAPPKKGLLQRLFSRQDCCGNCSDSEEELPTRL

[5] = tested on: Epidermal growth factor receptor (Homo sapiens), P00533 [T790M]; test: Residual activity of EGFR T790M mutant at 1 uM by microplate scintillation counting
[6] = biological target: Activin receptor type-1-like (Homo sapiens) (UniProt P37023); test: Residual activity of ACV-RL1 at 10 uM by microplate scintillation counting
Sequence of Activin receptor type-1-like (Homo sapiens) (P37023 whole entry): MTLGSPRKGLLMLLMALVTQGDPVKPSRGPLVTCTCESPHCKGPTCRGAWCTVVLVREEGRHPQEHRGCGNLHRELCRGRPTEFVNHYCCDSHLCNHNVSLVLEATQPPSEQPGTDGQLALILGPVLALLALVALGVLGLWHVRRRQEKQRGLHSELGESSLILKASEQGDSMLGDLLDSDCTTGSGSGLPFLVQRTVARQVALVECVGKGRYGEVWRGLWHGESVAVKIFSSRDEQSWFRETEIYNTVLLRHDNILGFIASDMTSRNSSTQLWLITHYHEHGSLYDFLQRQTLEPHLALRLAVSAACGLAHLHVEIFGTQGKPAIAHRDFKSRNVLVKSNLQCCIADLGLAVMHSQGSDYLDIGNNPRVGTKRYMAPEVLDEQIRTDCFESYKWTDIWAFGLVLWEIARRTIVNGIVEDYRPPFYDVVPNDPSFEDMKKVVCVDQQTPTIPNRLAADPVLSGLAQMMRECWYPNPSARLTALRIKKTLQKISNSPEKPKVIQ

[7] = biological target: CDK6/cyclin D1 (Homo sapiens) (UniProt P24385+Q00534); test: Residual activity of CDK6/Cyclin D1 at 1 uM by microplate scintillation counting; type: protein-complex assay
[8] = biological target: T2, Serine/threonine-protein kinase VRK1 (Homo sapiens) (UniProt Q99986); test: Residual activity of VRK1 at 10 uM by microplate scintillation counting
T2 sequence (whole entry): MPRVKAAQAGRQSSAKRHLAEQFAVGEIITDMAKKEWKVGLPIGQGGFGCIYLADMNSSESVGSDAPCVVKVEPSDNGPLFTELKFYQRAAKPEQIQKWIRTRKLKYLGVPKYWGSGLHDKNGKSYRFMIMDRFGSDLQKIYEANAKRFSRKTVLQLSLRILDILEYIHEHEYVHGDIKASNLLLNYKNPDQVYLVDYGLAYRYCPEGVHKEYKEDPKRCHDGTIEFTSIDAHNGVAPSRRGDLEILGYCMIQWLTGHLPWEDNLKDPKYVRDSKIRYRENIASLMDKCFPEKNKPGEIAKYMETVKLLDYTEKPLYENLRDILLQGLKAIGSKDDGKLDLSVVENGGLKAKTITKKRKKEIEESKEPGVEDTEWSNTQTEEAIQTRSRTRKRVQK

[9] = biological target: Leukocyte tyrosine kinase receptor (Homo sapiens) (UniProt P29376); test: Residual activity of LTK at 10 uM by microplate scintillation counting
Sequence of Leukocyte tyrosine kinase receptor (Homo sapiens) (P29376 whole entry): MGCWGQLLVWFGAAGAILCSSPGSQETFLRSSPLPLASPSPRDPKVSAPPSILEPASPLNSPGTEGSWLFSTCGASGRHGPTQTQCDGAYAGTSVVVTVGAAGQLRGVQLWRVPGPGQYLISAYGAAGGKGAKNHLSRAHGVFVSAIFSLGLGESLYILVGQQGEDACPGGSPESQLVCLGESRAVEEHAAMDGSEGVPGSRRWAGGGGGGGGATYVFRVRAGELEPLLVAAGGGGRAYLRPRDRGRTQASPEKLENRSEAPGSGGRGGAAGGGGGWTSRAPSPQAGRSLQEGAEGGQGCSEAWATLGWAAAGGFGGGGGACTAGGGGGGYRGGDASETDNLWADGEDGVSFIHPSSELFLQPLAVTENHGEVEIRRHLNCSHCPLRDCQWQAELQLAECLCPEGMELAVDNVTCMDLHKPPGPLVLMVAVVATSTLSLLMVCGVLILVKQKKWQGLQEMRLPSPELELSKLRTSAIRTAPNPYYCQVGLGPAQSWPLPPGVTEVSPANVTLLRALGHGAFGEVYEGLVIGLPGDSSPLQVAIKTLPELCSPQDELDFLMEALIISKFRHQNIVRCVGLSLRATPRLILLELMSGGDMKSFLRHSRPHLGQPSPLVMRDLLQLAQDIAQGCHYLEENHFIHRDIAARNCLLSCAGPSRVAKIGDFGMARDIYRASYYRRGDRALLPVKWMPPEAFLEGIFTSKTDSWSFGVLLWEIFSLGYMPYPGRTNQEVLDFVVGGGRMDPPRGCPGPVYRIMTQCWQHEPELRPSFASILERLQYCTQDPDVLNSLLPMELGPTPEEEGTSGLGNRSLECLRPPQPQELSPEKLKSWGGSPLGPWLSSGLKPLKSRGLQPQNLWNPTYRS

[10] = biological target: 5'-AMP-activated protein kinase catalytic subunit alpha-1 (Homo sapiens) (UniProt Q13131); test: Residual activity of AMPK-alpha1 fl at 1 uM by microplate scintillation counting
Sequence of 5'-AMP-activated protein kinase catalytic subunit alpha-1 (Homo sapiens) (Q13131 whole entry, looked up): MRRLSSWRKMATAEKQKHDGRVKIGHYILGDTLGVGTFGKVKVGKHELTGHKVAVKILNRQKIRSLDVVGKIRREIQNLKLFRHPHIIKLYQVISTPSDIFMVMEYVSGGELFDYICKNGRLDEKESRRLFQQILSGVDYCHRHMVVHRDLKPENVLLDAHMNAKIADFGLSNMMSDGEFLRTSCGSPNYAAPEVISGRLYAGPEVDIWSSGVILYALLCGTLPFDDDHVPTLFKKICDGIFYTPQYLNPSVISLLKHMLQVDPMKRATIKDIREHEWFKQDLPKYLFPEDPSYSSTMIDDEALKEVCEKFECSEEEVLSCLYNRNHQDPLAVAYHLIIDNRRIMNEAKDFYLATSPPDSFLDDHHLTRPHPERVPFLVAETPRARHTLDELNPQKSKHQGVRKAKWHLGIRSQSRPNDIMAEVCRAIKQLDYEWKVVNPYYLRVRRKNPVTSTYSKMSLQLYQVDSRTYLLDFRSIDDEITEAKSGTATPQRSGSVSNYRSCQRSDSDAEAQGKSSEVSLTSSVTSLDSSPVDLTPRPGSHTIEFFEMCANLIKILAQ

[11] = biological target: Glycogen synthase kinase-3 alpha (Homo sapiens) (UniProt P49840); test: Residual activity of GSK3alpha at 0.1 uM by microplate scintillation counting
Sequence of Glycogen synthase kinase-3 alpha (Homo sapiens) (P49840 2-483 limits assumed): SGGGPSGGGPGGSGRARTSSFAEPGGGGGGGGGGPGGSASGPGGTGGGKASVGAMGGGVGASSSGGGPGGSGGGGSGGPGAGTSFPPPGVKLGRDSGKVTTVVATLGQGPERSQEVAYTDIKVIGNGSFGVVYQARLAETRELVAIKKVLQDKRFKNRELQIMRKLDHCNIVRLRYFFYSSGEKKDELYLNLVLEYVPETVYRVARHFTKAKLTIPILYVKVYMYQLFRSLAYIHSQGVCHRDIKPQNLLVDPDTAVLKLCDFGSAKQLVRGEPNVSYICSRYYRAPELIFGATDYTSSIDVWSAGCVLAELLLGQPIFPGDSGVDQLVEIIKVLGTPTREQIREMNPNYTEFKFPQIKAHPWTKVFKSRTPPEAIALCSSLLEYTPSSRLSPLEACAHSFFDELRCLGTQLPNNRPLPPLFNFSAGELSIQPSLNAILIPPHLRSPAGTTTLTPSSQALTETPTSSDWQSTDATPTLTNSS

[12] = biological target: T3, Serine/threonine-protein kinase BRSK1 (Homo sapiens) (UniProt Q8TDC3); test: Residual activity of BRSK1 at 10 uM by microplate scintillation counting
T3 sequence (whole entry): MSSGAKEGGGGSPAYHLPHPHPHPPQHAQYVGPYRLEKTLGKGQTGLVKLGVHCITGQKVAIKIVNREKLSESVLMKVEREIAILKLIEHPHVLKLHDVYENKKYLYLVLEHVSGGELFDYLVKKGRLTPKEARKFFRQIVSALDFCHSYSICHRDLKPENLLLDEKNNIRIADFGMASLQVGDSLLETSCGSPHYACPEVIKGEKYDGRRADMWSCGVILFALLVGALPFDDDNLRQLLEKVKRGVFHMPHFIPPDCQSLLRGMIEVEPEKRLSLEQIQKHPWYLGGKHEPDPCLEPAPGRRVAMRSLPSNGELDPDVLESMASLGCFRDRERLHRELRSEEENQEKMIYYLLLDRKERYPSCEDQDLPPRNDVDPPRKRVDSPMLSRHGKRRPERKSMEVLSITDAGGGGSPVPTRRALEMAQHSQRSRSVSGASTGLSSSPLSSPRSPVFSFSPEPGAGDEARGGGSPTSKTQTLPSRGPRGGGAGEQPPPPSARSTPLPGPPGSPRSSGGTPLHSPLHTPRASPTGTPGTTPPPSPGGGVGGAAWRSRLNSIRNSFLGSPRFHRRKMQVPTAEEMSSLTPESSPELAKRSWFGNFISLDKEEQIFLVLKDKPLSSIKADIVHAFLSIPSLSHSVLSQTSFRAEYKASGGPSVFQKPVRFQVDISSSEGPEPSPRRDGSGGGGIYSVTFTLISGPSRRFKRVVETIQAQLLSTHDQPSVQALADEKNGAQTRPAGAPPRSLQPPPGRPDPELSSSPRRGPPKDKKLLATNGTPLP

Sequence of Rho-associated protein kinase 2 (Homo sapiens) (O75116 whole entry, looked up): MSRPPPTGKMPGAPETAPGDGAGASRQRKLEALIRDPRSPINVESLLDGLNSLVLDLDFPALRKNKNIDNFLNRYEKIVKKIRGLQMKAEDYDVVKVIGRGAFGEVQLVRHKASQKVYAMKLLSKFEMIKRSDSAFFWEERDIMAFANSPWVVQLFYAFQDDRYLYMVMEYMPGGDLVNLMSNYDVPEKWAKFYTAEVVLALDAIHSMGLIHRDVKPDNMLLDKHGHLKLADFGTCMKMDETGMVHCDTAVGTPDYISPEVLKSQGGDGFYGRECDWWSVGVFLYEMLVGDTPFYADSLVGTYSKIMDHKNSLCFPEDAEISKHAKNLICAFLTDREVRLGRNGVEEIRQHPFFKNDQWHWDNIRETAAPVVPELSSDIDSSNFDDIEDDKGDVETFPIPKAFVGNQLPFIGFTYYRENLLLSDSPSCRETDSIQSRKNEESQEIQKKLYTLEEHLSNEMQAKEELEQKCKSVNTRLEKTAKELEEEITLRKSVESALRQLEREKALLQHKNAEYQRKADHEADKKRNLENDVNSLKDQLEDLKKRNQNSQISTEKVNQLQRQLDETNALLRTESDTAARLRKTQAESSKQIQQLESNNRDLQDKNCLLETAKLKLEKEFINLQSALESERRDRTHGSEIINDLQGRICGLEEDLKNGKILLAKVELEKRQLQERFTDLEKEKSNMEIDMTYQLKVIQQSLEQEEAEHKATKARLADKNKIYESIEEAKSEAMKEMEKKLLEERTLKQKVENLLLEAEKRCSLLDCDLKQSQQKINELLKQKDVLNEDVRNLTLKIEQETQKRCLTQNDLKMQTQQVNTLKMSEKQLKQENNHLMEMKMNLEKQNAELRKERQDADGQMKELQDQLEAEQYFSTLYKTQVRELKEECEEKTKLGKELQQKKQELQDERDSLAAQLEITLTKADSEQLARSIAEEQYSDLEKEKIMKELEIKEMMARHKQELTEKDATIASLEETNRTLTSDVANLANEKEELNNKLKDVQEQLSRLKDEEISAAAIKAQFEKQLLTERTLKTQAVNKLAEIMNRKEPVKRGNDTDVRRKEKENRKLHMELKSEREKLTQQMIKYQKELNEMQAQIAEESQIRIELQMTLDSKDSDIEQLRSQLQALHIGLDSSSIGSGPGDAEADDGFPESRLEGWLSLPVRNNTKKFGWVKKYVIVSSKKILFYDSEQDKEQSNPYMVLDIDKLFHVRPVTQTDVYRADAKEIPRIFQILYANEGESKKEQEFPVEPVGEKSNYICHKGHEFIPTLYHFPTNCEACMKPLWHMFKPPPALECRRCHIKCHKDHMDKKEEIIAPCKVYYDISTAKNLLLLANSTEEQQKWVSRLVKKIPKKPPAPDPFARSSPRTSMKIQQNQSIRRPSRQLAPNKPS

Row | residual activity [1] | residual activity [2] | residual activity [3] | residual activity [4] | residual activity [5] | residual activity [6] | residual activity [7] | residual activity [8] | residual activity [9] | residual activity [10] | residual activity [11] | residual activity [12] | Compound
1 | 54% | 116% | 254% | 79% | 88% | 84% | 109% | 127% | 163% | 76% | 103% | 100% | COc1cc2c(Oc3ccc(-c4nc5ccccc5s4)cc3)ncnc2cc1OCCCN1CCN(C)CC1
2 | 47% | 102% | 239% | 88% | 88% | 91% | 100% | 126% | 89% | 77% | 104% | 103% | COc1cc2c(Oc3ccc(-c4nc5ccccc5s4)cc3F)ncnc2cc1OCCCN1CCN(C)CC1
3 | 84% | 103% | 224% | 88% | 85% | 87% | 104% | 135% | 200% | 91% | 95% | 99% | COc1cc2c(Oc3ccc(-c4nc5ccccc5s4)cc3)ncnc2cc1OCCCN1CCCC1
